The IC50 is the concentration that inhibits the measured activity by half.

The target in the assay is recombinant human HPK1 (Homo sapiens (Human), UniProt Q92918). Nature of the assay: HPK1 kinase assay (ADP-Glo). The class given is biochemical. Conditions: 25 μM ATP, MBP substrate. In a few lines: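 Activity was read as ADP formed, detected by ADP-Glo luminescence after the reaction of 5 ng recombinant human HPK1 with MBP and ATP (stocks 0.5 μg/μl and 25 μM) for 40 min at 30 °C. Buffer was Tris pH 7.5 with MgCl2, BSA and DTT, with compound in 0.5% DMSO. IC50 came from inhibition curves.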
Chain of recombinant human HPK1 (Q92918 whole entry): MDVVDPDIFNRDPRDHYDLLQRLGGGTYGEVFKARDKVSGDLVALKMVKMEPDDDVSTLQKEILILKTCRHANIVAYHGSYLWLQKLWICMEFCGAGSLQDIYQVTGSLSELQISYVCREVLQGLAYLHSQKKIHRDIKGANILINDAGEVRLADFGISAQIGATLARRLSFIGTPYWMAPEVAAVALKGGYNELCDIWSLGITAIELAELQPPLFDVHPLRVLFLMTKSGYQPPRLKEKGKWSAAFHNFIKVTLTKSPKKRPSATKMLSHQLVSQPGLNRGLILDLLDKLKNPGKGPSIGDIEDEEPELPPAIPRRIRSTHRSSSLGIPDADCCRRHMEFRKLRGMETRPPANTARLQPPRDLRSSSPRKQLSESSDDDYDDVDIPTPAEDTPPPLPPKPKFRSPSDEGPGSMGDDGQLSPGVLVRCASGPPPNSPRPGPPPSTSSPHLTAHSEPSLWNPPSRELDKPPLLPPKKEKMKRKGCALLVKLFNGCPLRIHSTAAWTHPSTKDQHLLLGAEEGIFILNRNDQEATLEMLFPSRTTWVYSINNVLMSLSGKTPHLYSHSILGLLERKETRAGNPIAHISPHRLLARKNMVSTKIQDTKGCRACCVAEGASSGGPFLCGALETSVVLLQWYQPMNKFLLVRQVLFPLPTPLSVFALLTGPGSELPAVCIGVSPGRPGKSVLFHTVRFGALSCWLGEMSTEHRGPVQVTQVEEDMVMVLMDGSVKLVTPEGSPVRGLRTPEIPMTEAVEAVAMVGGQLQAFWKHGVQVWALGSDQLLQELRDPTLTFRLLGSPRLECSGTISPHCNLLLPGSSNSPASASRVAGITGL
Background: In ADP-Glo the light output rises with the ADP produced.
Take `CC(C)N(C)c1c(F)c(Cl)c(-c2ccc3nc(NC(=O)[C@@H]4C[C@@H]4F)cn3c2)c2cn[nH]c12` [Example 360, (1S,2S)-N-(6-(5-chloro-6-fluoro-7-(isopropyl(methyl)amino)-1H-indazol-4-yl)imidazo[1,2-a]pyridin-2-yl)-2-fluorocyclopropane-1-carboxamide]: the IC50 is under 0.1 µM.
As to `O=C(Nc1cn2cc(-c3c(Cl)c(F)c(Cn4ccnn4)c4[nH]ncc34)ccc2n1)[C@@H]1C[C@@H]1F` [Example 384, (1S,2S)-N-(6-(7-((1H-1,2,3-triazol-1-yl)methyl)-5-chloro-6-fluoro-1H-indazol-4-yl)imidazo[1,2-a]pyridin-2-yl)-2-fluorocyclopropane-1-carboxamide], the IC50 was under 0.1 µM.
Regarding `Cc1cccn1-c1c(F)c(Cl)c(-c2ccc3nc(NC(=O)[C@@H]4C[C@@H]4F)cn3c2)c2cn[nH]c12` [Example 388, (1S,2S)-N-(6-(5-chloro-6-fluoro-7-(2-methyl-1H-pyrrol-1-yl)-1H-indazol-4-yl)imidazo[1,2-a]pyridin-2-yl)-2-fluorocyclopropane-1-carboxamide], the 50% inhibitory concentration (IC50) is under 0.1 µM.
As for `CSc1c(F)c(Cl)c(-c2ccn3nc(NC(=O)O[C@@H]4COC[C@H]4C)cc3c2)c2cn[nH]c12` [Example 645, (3S,4R)-4-methyltetrahydrofuran-3-yl (5-(5-chloro-6-fluoro-7-(methylthio)-1H-indazol-4-yl)pyrazolo[1,5-a]pyridin-2-yl)carbamate], the IC50 was under 0.1 µM.
For `CN(C)c1ccc2[nH]ncc2c1-c1ccc2nc(NC(=O)C3CC3)cn2c1` [Example 230, N-(6-(5-(dimethylamino)-1H-indazol-4-yl)imidazo[1,2-a]pyridin-2-yl)cyclopropanecarboxamide], the IC50 was over 1 µM.
Consider `O=C(Nc1cn2cc(-c3cccc4[nH]ncc34)ccc2n1)[C@@H]1C[C@@H]1F` [Example 222, (1S,2S)-N-(6-(1H-indazol-4-yl)imidazo[1,2-a]pyridin-2-yl)-2-fluorocyclopropane-1-carboxamide], for which the IC50 was in the range of 0.501 to 1 µM.
`CC(=S)Nc1c(F)c(Cl)c(-c2ccc3nc(NC(=O)[C@@H]4C[C@@H]4F)cn3c2)c2cn[nH]c12` [Example 411, (1S,2S)-N-(6-(5-chloro-7-ethanethioamido-6-fluoro-1H-indazol-4-yl)imidazo[1,2-a]pyridin-2-yl)-2-fluorocyclopropane-1-carboxamide]: the IC50 was under 0.1 µM.
Turning to `Cc1c(F)c(C)c2[nH]ncc2c1-c1ccn2nc(NC(=O)[C@@H]3C[C@@H]3F)cc2c1` [Example 477, (1S,2S)-2-fluoro-N-(5-(6-fluoro-5,7-dimethyl-1H-indazol-4-yl)pyrazolo[1,5-a]pyridin-2-yl)cyclopropane-1-carboxamide], the IC50 is under 0.1 µM.
In the case of `Cc1c(F)cc2[nH]nc(I)c2c1-c1ccc2nc(NC(=O)[C@@H]3C[C@@H]3F)sc2c1` [Example 45, (1S,2S)-2-fluoro-N-(6-(6-fluoro-3-iodo-5-methyl-1H-indazol-4-yl)benzo[d]thiazol-2-yl)cyclopropane-1-carboxamide], the IC50 is over 1 µM.
Regarding `O=C(Nc1cn2cc(-c3c(Cl)c(F)c(N(C(=O)C(F)(F)F)C4CC4)c4[nH]ncc34)ccc2n1)[C@@H]1C[C@@H]1F` [Example 368, (1S,2S)-N-(6-(5-chloro-7-(N-cyclopropyl-2,2,2-trifluoroacetamido)-6-fluoro-1H-indazol-4-yl)imidazo[1,2-a]pyridin-2-yl)-2-fluorocyclopropane-1-carboxamide], the IC50 is under 0.1 µM.
Consider `CN(c1c(F)c(Cl)c(-c2ccn3nc(NC(=O)[C@@H]4C[C@@H]4F)cc3c2)c2cn[nH]c12)C1CCC(O)C1` (stereo partly drawn) [Example 555, (1S,2S)-N-(5-(5-chloro-6-fluoro-7-((3-hydroxycyclopentyl)(methyl)amino)-1H-indazol-4-yl)pyrazolo[1,5-a]pyridin-2-yl)-2-fluorocyclopropane-1-carboxamide], for which the IC50 is under 0.1 µM.
